Reference: article PMC10796475, “Immobilization of Thermoplasma acidophilum Glucose Dehydrogenase and Isocitrate Dehydrogenase Through Enzyme-Inorganic Hybrid Nanocrystal Formation” (Current Microbiology, 2024)

Tests used:
[1] = biological target: T1, TaIDH (T. acidophilum isocitrate dehydrogenase) (Thermoplasma acidophilum, UniProt Q9HLV8); assay: NADPH formation at […] nm, initial rate (oxidative decarboxylation); format: biochemical; conditions: free enzyme; NADP+ 0.2 mM, MgCl2 0.4 mM; HEPES-NaOH pH 6.5, 37 °C; partially purified
T1 construct: gene Ta0117; pET21b(+) in E. coli BL21(DE3)pLysS; partially purified by heat treatment (60 °C, 15 min)
T1 sequence (Q9HLV8 1-405): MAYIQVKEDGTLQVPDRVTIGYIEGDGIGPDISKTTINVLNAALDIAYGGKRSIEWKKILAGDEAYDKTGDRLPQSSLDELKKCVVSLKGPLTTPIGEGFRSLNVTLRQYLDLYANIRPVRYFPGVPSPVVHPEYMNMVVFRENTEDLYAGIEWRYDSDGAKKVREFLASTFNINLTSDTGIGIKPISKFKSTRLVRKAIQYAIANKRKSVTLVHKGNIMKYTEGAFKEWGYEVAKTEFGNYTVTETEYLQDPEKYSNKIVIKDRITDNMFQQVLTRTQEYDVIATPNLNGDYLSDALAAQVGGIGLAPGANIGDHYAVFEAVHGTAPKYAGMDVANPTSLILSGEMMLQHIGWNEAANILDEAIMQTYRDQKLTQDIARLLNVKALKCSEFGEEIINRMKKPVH

[2] = biological target: T2, TaGDH (Thermoplasma acidophilum glucose dehydrogenase) (Thermoplasma acidophilum, UniProt P13203); assay: NADPH formation at […] nm, initial rate; format: biochemical; conditions: free enzyme; NADP+ 0.2 mM; HEPES-NaOH pH 6.5, 37 °C; partially purified
T2 construct: gene gdh; pET21b(+) in E. coli Rosetta(DE3)pLysS; partially purified by heat treatment (60 °C, 15 min)
T2 sequence (P13203 2-361): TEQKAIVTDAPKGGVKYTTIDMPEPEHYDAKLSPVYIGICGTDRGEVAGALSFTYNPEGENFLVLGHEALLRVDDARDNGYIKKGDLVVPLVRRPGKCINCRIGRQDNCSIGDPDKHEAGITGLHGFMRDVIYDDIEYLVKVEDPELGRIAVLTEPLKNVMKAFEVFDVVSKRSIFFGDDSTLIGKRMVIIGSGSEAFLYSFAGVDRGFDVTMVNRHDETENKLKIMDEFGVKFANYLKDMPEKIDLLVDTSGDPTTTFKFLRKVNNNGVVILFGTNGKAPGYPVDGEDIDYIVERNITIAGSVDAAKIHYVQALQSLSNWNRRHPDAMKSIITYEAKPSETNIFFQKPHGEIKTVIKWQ

| Structure (SMILES) | NADPH formation at 340 nm, initial rate (oxidative decarboxylation) [1] | NADPH formation at 340 nm, initial rate [2] |
| --- | --- | --- |
| O=C(O)CC(C(=O)O)C(O)C(=O)O (racemic) [DL-isocitric acid] | NADPH released by the decarboxylation and oxidation of DL-isocitric acid per minute |  |
| OC[C@H]1OC(O)[C@H](O)[C@@H](O)[C@@H]1O (stereo partly drawn) [D-glucose] |  | micromoles of NADPH released by the oxidation of glucose per minute |
